Laboratory results from patent US20230165866A1, “CYCLOSERINE AND PENTOXIFYLLINE COMBINATION THERAPY FOR TREATMENT OF DEPRESSION” (NEURORIVE INC, priority 2020, published 2023).

Columns and labels:
[1] = system: mice (C57BL/6); test: Forced swimming test (FST); format: in vivo, mouse; conditions: C57BL/6 mice, oral; DCS alone 10 mg/kg, pentoxifylline alone 80 mg/kg, combination DCS 10 mg/kg + pentoxifylline 10, 20, 80, 160 mg/kg; FST an hour after administration; immobility time in last 4 min of 6 min
Description: In order to test an effect of reducing depression depending on administration of the composite composition of the present invention, mice were performed to a forced swimming test (FST). The FST, which is to measure a coping strategy for acute stress that inevitably occurs, is an animal behavioral experiment commonly used to measure antidepressant effects. To confirm the effect of reducing depression by combined administration of D-cycloserine (DCS) and pentoxifylline (Pen), each group of mice was administered orally with the vehicle (DW 5 ml/kg), DCS (administered alone at 10 mg/kg), pentoxifylline (administered alone at 80 mg/kg) and DCS+pentoxifylline (DCS 10 mg/kg and pentoxifylline 10, 20, 80, 160 mg/kg combination treatment group). After administration, the forced swimming test (FST) that measures depression-like behavior was performed on the mice. Specifically, each mice group (C57BL/6) was individually placed in a 3 L Pyrex beaker (13 cm in diameter, 24 cm in height), and the beakers were filled with 26° C. of water up to a depth of 9 cm. All mice were forced to swim for 6 minutes, and immobility time was measured for the last 4 minutes of the experiment. The immobility time is defined as the […] time taken while the mouse is floating without struggling or taking only the movement required for keeping the mouse's head above the water surface.

[2] = system: mice (C57BL6); test: Tail suspension test (TST); format: in vivo, mouse; conditions: DCS alone 10 mg/kg, pentoxifylline alone 80 mg/kg, combination DCS 10 mg/kg + pentoxifylline 10, 20, 80, 160 mg/kg, TST 1 hour after administration, immobility time over 6 min
From the text: In order to test an effect of reducing depression depending on administration of the composite composition of the present invention, mice were subjected to a tail suspension test (TST). The TST, which is to measure a stress in a rodent animal model, is based on the behavior of an experimental animal facing immobile posture in the face of short-term, irreversible stress. In the technical field of the present invention, the TST is used to measure the effect of antidepressant. To confirm the effect of reducing depression by combined administration of D-cycloserine (DCS) and pentoxifylline (Pen), DCS, Pen alone or a composite composition were administered to all groups of mice (C57BL6). Each group of mice was administered with the vehicle (DW 5 ml/kg), DCS (administered alone at 10 mg/kg), pentoxifylline (administered alone at 80 mg/kg), and DCS+pentoxifylline (DCS 10 mg/kg and pentoxifylline 10, 20, 80, 160 mg/kg combination treatment group). After 1 hour, the tail suspension test (TST) that measures depression-like behavior was performed on the mice. […] The experiment started as soon as the mouse was hung, and the immobility time was measured for 6 minutes after the start of the experiment. […]

| SMILES | immobility in FST compared to the control group administered with the vehicle [1] | immobility in TST compared to the control group administered with the vehicle [2] |
| --- | --- | --- |
| N[C@@H]1CONC1=O [DCS, D-cycloserine] | did not show significantly different in immobility | did not show statistical significance |
| CC(=O)CCCCn1c(=O)c2c(ncn2C)n(C)c1=O [pentoxifylline] | did not show significantly different in immobility | did not show statistical significance |
